Test results published in patent publication US11708330B2, “Compounds, compositions, methods for treating diseases, and methods for preparing compounds” (UNIVERSITY OF LOUISVILLE RESEARCH FOUNDATION, INC., priority 2017, dated 2023).

Columns and labels:
cancer cells [1] = experiment: Intracellular ATP, bioluminescence assay; assay type: cell-based; conditions: two independently run experiments (FIG. 5A, 5B)
Procedure: The effect of Formula (I) on the production of ATP was examined as a measure of its effect on energy production by the glycolytic pathway.
To measure ATP, cells were washed (while still adherent) with cold PBS, lysed with Passive Lysis Buffer (Molecular Probes, Invitrogen) added directly to the plates, and immediately harvested by scraping. The lysates were flash frozen (to −80° C.) and thawed (to 37° C.) once to accomplish complete lysis and then centrifuged to clear the lysates. Intracellular ATP levels were determined using a bioluminescence assay (Molecular Probes), utilizing luciferase and its substrate, D-luciferin and ATP values were calculated using an ATP standard curve. The ATP concentration was normalized to protein concentration that was estimated using the BCA assay.

[2] = test system: Lewis lung carcinoma cells; experiment: Tumor growth in vivo, syngeneic Lewis lung carcinoma model; design: species or system C57BL/6 mice; conditions: daily oral 40 mg/kg in DMSO, 9 days, established tumors ~150-200 mg (FIG. 8)
Text: The efficacy of Formula (I) in decreasing the growth of tumors in vivo was examined Mice were implanted with Lewis lung carcinoma cells and after tumors were noted, dosed daily with DMSO±Formula (I) by gavage and tumor growth followed. […] Data shown as mean±SEM for each timepoint. C57BL/6 mice (Charles River) were implanted with 1×10^6 Lewis lung carcinoma cells subcutaneously and, after tumors developed, were followed by caliper measurements daily to quantify tumor mass using the formula: tumor mass=(length×width^2)/2. When tumors were ˜150-200 mg, mice were randomized to daily oral DMSO±Formula (I) (n=10/group) at 40 mg/kg in 50 μL DMSO and tumor growth followed×9 days. (* signifies statistical significance)

cancer cells [3] = experiment: Intracellular fructose-2,6-bisphosphate (F26BP) in cells; assay type: cell-based; conditions: increasing concentrations; two independently run experiments (FIG. 3A, 3B)
Procedure: The ability of Formula (I) to inhibit the activity of the PFKFB4 enzyme in cells was measured by examining the effect of the inhibitor on the levels of the product of the PFKFB4 enzyme, fructose-2,6-bisphosphate (F26BP). […] Data in FIG. 3 are shown as the concentration of intracellular F26BP normalized to cellular protein concentration.
In order to measure F26BP, cells were exposed to increasing concentrations of Formula (I) and were harvested, washed with PBS, lysed in NaOH/Tris acetate by heating at 80° C. and lysates neutralized to pH 7.2. F26BP content was measured using a coupled enzyme reaction following the method of Van Schaftingen (VAN SCHAFTINGEN et al, “A kinetic study of pyrophosphate: fructose-6-phosphate phosphotransferase from potato tubers. Application to a microassay of fructose 2,6-bisphosphate” Eur J Biochem. (1982) Vol. 129, No. 1, pp. 191-195), which is herein incorporated by reference in its entirety. The F26BP concentration was normalized to total cellular protein measured by the bicinchoninic acid assay (BCA, Thermo Scientific).

[4] = biological target: recombinant human PFKFB4 protein (Homo sapiens, UniProt Q16877); experiment: ADP-Glo kinase assay of recombinant PFKFB4; assay type: biochemical; conditions: decrease in luminescence relative to DMSO (FIG. 1)
recombinant human PFKFB4 protein, sequence (Q16877 whole entry): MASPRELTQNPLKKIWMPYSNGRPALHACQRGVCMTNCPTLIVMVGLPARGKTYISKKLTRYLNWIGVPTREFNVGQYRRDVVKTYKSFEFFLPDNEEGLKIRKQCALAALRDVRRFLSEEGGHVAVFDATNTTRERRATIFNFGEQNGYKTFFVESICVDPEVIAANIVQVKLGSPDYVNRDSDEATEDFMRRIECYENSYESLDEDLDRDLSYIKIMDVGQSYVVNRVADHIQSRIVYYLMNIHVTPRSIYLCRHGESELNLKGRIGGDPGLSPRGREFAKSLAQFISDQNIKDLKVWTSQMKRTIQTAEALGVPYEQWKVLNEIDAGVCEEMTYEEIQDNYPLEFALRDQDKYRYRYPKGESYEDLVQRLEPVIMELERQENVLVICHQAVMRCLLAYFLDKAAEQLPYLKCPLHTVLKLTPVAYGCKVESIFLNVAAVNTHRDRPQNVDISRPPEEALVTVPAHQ
Procedure: The efficacy of the compound Formula (I) in inhibiting the activity of the PFKFB4 enzyme was tested by examination of the effect of Formula (I) on the kinase activity of recombinant PFKFB4 enzyme in the ADP-Glo assay.
The efficacy of Formula (I) in inhibition of the kinase activity of the PFKFB4 enzyme was examined by exposing recombinant human PFKFB4 protein to Formula (I) in the ADP-Glo kinase assay (Promega) which measures ADP formed through a kinase reaction. Briefly, recombinant protein, ATP, substrate and Formula (I) were incubated together for the kinase reaction followed by the addition of ADP-Glo reagent, used to terminate the kinase reaction. Lastly, a kinase detection reagent was added to convert the newly formed ADP to ATP which was measured by a luciferase reaction. Data are shown in FIG. 1 as the decrease in luminescence caused by Formula (I) relative to DMSO. Decrease in Cell Proliferation by Formula (I) (Also Referred to as FBR1-12): […]

cancer cells [5] = experiment: Anchorage independent growth as colonies in soft agar; assay type: cell-based; conditions: increasing concentrations; compared with DMSO (FIG. 6)
Procedure: We examined the ability of Formula (I) to inhibit the anchorage independent growth of cancer cells in vitro as colonies in soft agar. […] Representative images are shown in FIG. 6A, and colonies formed were enumerated. The number of colonies formed in the presence of Formula (I) was compared with those formed in the presence of the vehicle, DMSO (FIG. 6B).
Cancer cells were plated in soft agar and the effects of increasing concentrations of Formula (I) on anchorage independent growth was examined Briefly, a feeder layer of 0.6% agarose (Agar Noble, Becton Dickinson) in RPMI with 10% fetal bovine serum was plated in 6 cm plates containing vehicle (DMSO) or increasing concentrations of Formula (I). 1×10^4 cells were re-suspended in 0.3% agarose in RPMI/10% serum containing DMSO or increasing concentrations of Formula (I) and plated on top of the feeder layer. Cells were allowed to grow at 37° C. in 5% CO2 and agarose-containing media with DMSO+/−Formula (I) was replenished every 5 days until colonies became visible. Colonies were stained with MTT [3-(4,5-dimethylthiazol-2-yl)-2,5-diphenyl tetrazolium bromide] and counted in four random 1 cm^2 areas per plate under 40× magnification and enumerated.

human cancer cell lines = experiment: Cell proliferation, viable cell counts by Trypan blue exclusion; assay type: cell-based; conditions: increasing concentrations; cell counts relative to DMSO, representative counts at 48 hours (FIG. 2); compared with SMPN
Procedure: The effect of increasing concentrations of Formula (I) on the proliferation of human cancer cells was examined in vitro. […] Data in FIG. 2 are shown as the decrease in cell counts relative to the DMSO (vehicle) control.
Method: Cells were plated in 24 well plates and exposed to increasing concentrations of Formula (I). DMSO was used as a vehicle. After 24, 48 and 72 hours of exposure, cells were detached, and viable cells were counted by Trypan blue exclusion (representative counts at 48 hours shown).

cancer cells [6] = experiment: Glycolysis in cells, 3H2O production from 5-[3H]glucose; assay type: cell-based; conditions: two independently run experiments (FIG. 4A, 4B)
Text: The effect of Formula (I) on the glycolytic pathway was examined to determine the ability of this inhibitor to decrease glycolysis secondary to its effect on PFKFB4-driven F26BP production. PFKFB4 produces F26BP which activates a rate-limiting enzyme of the glycolytic pathway, […] (PFK-1). […] Data in FIG. 4A and FIG. 4B are shown as the production of ^3H2O by Formula (I) relative to DMSO and normalized to protein concentration.
Method: To examine glycolysis, cells growing in 6-well plates were incubated in 500 μl of complete medium containing 1 μCi of […] per well for 60 min in 5% CO2 at 37° C. The medium was then collected and centrifuged to pellet any suspended cells. […] The amounts of ^3H2O that had diffused into the surrounding H2O was measured on a Tri-Carb 2910 liquid scintillation analyzer (Perkin Elmer) and compared with ^3H2O and 5-[^3H]glucose standards. Protein concentration was determined using the BCA assay and counts were normalized to protein concentration (previously described in CHESNEY et al., “Fructose-2,6-bisphosphate synthesis by 6-phosphofructo-2-kinase/fructose-2,6-bisphosphatase 4 (PFKFB4) is required for the glycolytic response to hypoxia and tumor growth” Oncotarget (2014) Vol. 5, No. 16, pp. 6670-6686, which is herein incorporated by reference in its entirety).

[7] = test system: subcutaneous Lewis lung carcinoma tumors; experiment: Tumor glucose uptake in vivo by FDG-PET; design: species or system C57BL/6 mice; conditions: 40 mg/kg PO x1, PET 60 minutes after dose, versus vehicle (FIG. 9)
Procedure: The efficacy of Formula (I) to decrease tumor glucose uptake was examined by positron emission tomography (PET) following ^18F-fluoro-2-deoxy-glucose (FDG) injection. […] Method: FDG-PET was conducted on tumor-bearing mice to determine acute effects of Formula (I) on glucose uptake. C57BL/6 mice (Charles River) with subcutaneous Lewis lung carcinoma tumors were injected intraperitoneally with 100 μCi of ^18F-fluoro-2-deoxy-glucose under isoflurane anesthesia and subjected to a 15-minute static scan 45 minutes after tracer injection at baseline. Twenty-four hours later, the same animals were administered vehicle (DMSO) or Formula (I) (in DMSO, 40 mg/kg, PO×1), and, after 60 minutes, FDG uptake determined by PET scan. Tumor/cerebellum ROI (regions of interest) were quantified, representative sagittal cuts from mice are shown with arrows showing the tumors on the animals. (* signifies statistical significance).

## COc1cccc2c(NCCCCCNC(=O)C(F)(F)F)ccnc12 [Formula (I), 2,2,2-trifluoro-N-(5-((8-methoxyquinolin-4-yl)amino)pentyl)acetamide]
Cancer cells [1]
  production of ATP normalized to protein concentration: dose-dependent decrease in the production of ATP by cancer cells
[2]
  tumor growth (tumor mass): decreased established tumor growth in a syngeneic mouse tumor model
Cancer cells [3]
  intracellular F26BP normalized to cellular protein concentration: dose-dependent decrease in F26BP in cancer cells
[4]
  kinase activity of the PFKFB4 enzyme: inhibited the kinase activity of the PFKFB4 enzyme
Cancer cells [5]
  anchorage independent growth, soft agar colonies: inhibited the growth of cancer cells as soft agar colonies
Human cancer cell lines
  proliferation of human cancer cell lines: decreases the proliferation of human cancer cell lines in vitro with higher potency than SMPN
Cancer cells [6]
  glycolysis, production of 3H2O relative to DMSO normalized to protein concentration: dose-dependent decrease in glycolysis in cancer cells
[7]
  tumor FDG uptake (tumor/cerebellum ROI): caused a decrease in tumor FDG uptake compared with vehicle
